Here are results for three compounds from patent US10385372B2, “Methods for thaxtomin production and modified streptomyces with increased thaxtomin production” (priority 2014, dated 2019).

The subject of test [1] is S. scabies CebR regulator (CebR-His6). As to the kind of experiment: Electromobility gel shift assay (EMSA) with CebR-His6 pre-incubated with cellobiose and cellooligosaccharides. The format is binding, Streptomyces scabies. Conditions: EMSA of FIG. 4; for impairment of the CebR DNA-binding ability (quantification of shifted bands): CebR-His6 pre-incubated with oligosaccharide, Cy5-labelled cbs probes 6 nM. How it is done:
Numbers 1 and 2 refer to EMSAs with free probes (6 nM) and with probes incubated with CebR-His6, respectively. Numbers 3 to 7 refer to EMSAs with CebR-His6 pre-incubated with oligosaccharides, i.e. cellobiose (3), cellotriose (4), cellotetraose (5), cellopentaose (6), and cellohexaose (7). Note that cellobiose (3) is the best oligosaccharide for preventing CebR interaction with all CebR-binding sites.
Electromobility gel shift assays (EMSAs) were performed in order to assess binding of the S. scabies CebR regulator (CebR^sca) to the in silico predicted cbs. The scab57761 gene was cloned into pET-22b and overexpressed in Escherichia coli Rosetta (DE3) cells. The resulting recombinant His-tagged CebR (CebR-His6) was purified from the IPTG-induced E. coli cytoplasmic extracts by Nickel-NTA affinity column. […] Under the same conditions, strong CebR-binding to cbs^cebE-R and cbs^bglC, which were used as positive controls of genes known to be directly controlled by CebR (Schlösser 2000; Marushima 2009), was observed (FIG. 3).
Experimental in vitro validations of predicted cis-acting elements allowed proposing a signaling pathway from cellobiose sensing and transport to thaxtomin biosynthesis (FIG. 5). […] Once inside the cell, cellobiose (and to a lesser extent cellotriose) prevents CebR-binding to cbs^txtR-A and cbs^txtB allowing expression of txtA, txtB and txtR. Consequently, TxtR complexed to cellobiose would be able to increase the expression levels of txtA and txtB, the thaxtomin biosynthetic genes.
EMSAs with 34-bp double-stranded probes (generated by PCR, Table 2) were performed using Cy5-labeled cbs probes (6 nM and 30 nM final concentration) and His6-tagged CebR at a final concentration between 0.08 and 3.2 μM in a total reaction volume of 50 μl. All reactions were carried out in EMSA buffer (10 mM Tris-HCl, pH 7.5, 1 mM dithiothreitol [DTT], 0.25 mM CaCl2, 0.5 mM MgCl2, 50 mM KCl, and 2% glycerol) containing excess of nonspecific DNA (salmon sperm DNA). After 15 min of incubation at room temperature, reaction mixtures were loaded onto a 1% (wt/vol) agarose gel. Bound and unbound probes were separated by gel electrophoresis for 30 min at 100 V at room temperature, and fluorescent DNA was visualized using a Typhoon Trio+ variable-mode imager (FRFC 2.4506.08).
(In general: Mobility shift assays separate free from complexed probe on a gel.)

Test [2] has as its system S. scabies 87-22 and ΔcebR. Kind of test: Thaxtomin production on ISP-4 plates with and without cellobiose supply (HPLC). The format is cell-based, Streptomyces scabies. The note with it: ISP-4 medium; wild-type or ΔcebR background; FIGS. 8A and 8B. An excerpt: FIGS. 8A-B illustrate genetic complementation of the cebR mutant scored by thaxtomin production on ISP-4 plates. […] Although pigmentation is not visible in the black and white photos, FIG. 8B is a graphic illustration HPLC analysis of thaxtomin production on the ISP-4 plates from FIG. 8A. […] Thaxtomin production is reverted back to wild-type levels when the mutation is genetically complemented (cebR mutant transformed with pRLIF8 containing the cebR gene and its promoter region).
The production of thaxtomin by both strains grown on ISP-4 with and without cellobiose supply was compared. […] The further increase in toxin production by the mutant upon addition of cellobiose is most likely due to the function of cellobiose as ligand of the transcriptional activator TxtR, which drives the expression of the thaxtomin biosynthetic genes txtA and txtB (Joshi et al. 2007) (FIG. 5).
Mycelial suspensions of S. scabies strains were prepared from 48-72 h-old TSB-grown cultures by pelleting the mycelia, washing twice with sterile water, and resuspending in 1 ml sterile water to obtain an optical density at 600 nm (OD600 mn) of 1.0. […] Thaxtomin A was purified from the supernatant and analyzed by HPLC as described previously (Johnson et al. 2007). […]

On to `OC[C@H]1O[C@@H](O[C@H]2[C@H](O)[C@@H](O)[C@H](O[C@H]3[C@H](O)[C@@H](O)[C@H](O[C@H]4[C@H](O)[C@@H](O)[C@H](O[C@H]5[C@H](O)[C@@H](O)[C@H](O[C@H]6[C@H](O)[C@@H](O)C(O)O[C@@H]6CO)O[C@@H]5CO)O[C@@H]4CO)O[C@@H]3CO)O[C@@H]2CO)[C@H](O)[C@@H](O)[C@@H]1O` (some centres unmarked) [cellohexaose], for which the “impairment of the CebR DNA-binding ability (quantification of shifted bands)” value (from here on “impairment … (quantification of shifted bands)”) in test [1] stood at 12%.
Consider `O=C[C@H](O)[C@@H](O)[C@H](O[C@@H]1O[C@H](CO)[C@@H](O)[C@H](O)[C@H]1O)[C@H](O)CO` [cellobiose], for which the “effect of addition on thaxtomin production” value in test [2] was “significant increase”. For the same compound, the “impairment … (quantification of shifted bands)” value in test [1] was 56%. Further, the “allosteric effector inhibiting CebR from binding to its DNA targets” value in test [1] (compared with cellotriose to cellohexaose) is reported as “best allosteric effector”.
As to `OC[C@H]1O[C@@H](O[C@H]2[C@H](O)[C@@H](O)[C@H](O[C@H]3[C@H](O)[C@@H](O)C(O)O[C@@H]3CO)O[C@@H]2CO)[C@H](O)[C@@H](O)[C@@H]1O` (some centres unmarked) [cellotriose], the “impairment … (quantification of shifted bands)” value in test [1] amounted to 20%.
